Assays:
Experiment in all cases: β-arrestin based GPCR screen (PathHunter / GPCRmax), agonist mode
Type in all cases: cell-based
Set-up in all cases: host or cells: PathHunter cell lines
[1] = biological target: T1, 168 GPCRs (Homo sapiens, UniProt P0DMS8); conditions: ADORA3, Agonist
T1 sequence (P0DMS8 1-318): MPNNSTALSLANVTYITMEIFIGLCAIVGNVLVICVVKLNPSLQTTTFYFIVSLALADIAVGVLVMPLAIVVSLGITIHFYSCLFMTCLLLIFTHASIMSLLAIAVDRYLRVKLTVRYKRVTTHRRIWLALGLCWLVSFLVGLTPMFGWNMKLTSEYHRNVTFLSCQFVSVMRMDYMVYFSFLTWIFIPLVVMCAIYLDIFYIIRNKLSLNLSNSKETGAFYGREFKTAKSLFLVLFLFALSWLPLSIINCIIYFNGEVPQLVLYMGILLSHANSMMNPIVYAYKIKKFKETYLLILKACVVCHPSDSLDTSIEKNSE
Protocol: (§1) For agonist determination, cells were incubated with sample to induce response. […] Vehicle concentration was 1%.

[2] = biological target: 168 GPCRs (Homo sapiens, UniProt P21728)
Protocol: as §1

[3] = biological target: 168 GPCRs (Homo sapiens, UniProt P21731); conditions: TBXA2R
Sequence of 168 GPCRs (Homo sapiens, UniProt P21731) (P21731 whole entry): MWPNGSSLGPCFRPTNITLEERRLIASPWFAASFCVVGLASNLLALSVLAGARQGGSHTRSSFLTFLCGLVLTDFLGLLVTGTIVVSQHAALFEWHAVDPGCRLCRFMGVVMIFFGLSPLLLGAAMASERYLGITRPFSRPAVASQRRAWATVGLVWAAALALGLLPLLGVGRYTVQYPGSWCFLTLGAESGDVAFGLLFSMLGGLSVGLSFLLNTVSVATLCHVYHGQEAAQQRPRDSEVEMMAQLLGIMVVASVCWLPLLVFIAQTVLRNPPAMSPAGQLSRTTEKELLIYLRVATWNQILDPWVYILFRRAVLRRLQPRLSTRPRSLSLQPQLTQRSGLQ
Protocol: as §1

[4] = biological target: 168 GPCRs (Homo sapiens, UniProt P25025)
Sequence of 168 GPCRs (Homo sapiens, UniProt P25025) (P25025 whole entry): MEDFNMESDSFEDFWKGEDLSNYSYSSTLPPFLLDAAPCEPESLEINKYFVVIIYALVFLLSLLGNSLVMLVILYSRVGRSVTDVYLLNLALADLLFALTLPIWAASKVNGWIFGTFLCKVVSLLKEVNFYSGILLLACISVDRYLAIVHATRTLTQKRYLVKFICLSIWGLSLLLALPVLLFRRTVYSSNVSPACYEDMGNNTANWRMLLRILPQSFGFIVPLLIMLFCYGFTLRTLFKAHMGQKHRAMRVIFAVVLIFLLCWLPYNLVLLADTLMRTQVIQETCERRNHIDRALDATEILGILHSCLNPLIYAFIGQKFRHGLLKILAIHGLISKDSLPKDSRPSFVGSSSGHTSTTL
Protocol: as §1

[5] = biological target: 168 GPCRs (Homo sapiens, UniProt P30518); conditions: AVPR2, Agonist
Sequence of 168 GPCRs (Homo sapiens, UniProt P30518) (P30518 whole entry): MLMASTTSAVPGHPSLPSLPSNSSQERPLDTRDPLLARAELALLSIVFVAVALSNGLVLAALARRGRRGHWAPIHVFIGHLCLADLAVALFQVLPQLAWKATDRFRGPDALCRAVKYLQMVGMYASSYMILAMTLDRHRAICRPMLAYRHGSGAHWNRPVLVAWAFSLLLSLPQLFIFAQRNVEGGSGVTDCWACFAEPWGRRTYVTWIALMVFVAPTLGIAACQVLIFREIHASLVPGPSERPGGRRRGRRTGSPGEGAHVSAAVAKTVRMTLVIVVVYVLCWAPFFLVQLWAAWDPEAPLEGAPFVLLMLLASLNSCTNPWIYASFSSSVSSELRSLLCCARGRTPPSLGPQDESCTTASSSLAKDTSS
Protocol: as §1

[6] = biological target: 168 GPCRs (Homo sapiens, UniProt P32246); conditions: CCR1, Agonist
Sequence of 168 GPCRs (Homo sapiens, UniProt P32246) (P32246 whole entry): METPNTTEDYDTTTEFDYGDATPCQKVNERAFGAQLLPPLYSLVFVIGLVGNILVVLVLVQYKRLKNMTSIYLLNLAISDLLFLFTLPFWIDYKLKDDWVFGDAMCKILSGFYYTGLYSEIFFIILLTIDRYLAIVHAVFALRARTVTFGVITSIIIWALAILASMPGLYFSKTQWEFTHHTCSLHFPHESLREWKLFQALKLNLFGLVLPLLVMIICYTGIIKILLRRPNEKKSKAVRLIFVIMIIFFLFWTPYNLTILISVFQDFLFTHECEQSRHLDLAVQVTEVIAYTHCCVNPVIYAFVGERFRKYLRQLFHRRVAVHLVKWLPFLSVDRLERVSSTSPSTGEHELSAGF
Protocol: as §1

[7] = biological target: T2, 168 GPCRs (Homo sapiens, UniProt P32247); conditions: BRS3, Agonist
T2 sequence (P32247 1-399): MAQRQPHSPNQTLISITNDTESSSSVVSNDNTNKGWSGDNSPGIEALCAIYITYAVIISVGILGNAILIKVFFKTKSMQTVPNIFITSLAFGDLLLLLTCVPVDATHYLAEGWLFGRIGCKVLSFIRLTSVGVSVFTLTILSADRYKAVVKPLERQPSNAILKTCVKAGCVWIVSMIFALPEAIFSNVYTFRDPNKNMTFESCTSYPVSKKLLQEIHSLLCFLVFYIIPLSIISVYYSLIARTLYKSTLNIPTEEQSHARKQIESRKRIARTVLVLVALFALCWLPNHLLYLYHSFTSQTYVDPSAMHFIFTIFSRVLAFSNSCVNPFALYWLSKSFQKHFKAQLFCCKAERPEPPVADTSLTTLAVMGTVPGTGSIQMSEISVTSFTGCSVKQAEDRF
Protocol: as §1

[8] = biological target: 168 GPCRs (Homo sapiens, UniProt P35414); conditions: AGTRL1, Agonist
Sequence of 168 GPCRs (Homo sapiens, UniProt P35414) (P35414 whole entry): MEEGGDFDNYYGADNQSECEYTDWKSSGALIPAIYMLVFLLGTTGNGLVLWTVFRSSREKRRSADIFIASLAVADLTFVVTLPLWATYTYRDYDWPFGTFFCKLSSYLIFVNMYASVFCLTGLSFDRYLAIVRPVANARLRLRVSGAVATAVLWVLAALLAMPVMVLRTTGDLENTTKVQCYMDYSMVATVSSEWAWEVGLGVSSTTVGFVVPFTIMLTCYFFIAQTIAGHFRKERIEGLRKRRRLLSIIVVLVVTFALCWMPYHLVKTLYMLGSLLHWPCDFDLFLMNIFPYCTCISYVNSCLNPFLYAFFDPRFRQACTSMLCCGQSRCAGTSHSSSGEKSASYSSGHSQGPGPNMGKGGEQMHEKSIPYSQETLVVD
Protocol: as §1

[9] = biological target: 168 GPCRs (Homo sapiens, UniProt P41597); conditions: CCR2, Agonist
Sequence of 168 GPCRs (Homo sapiens, UniProt P41597) (P41597 whole entry): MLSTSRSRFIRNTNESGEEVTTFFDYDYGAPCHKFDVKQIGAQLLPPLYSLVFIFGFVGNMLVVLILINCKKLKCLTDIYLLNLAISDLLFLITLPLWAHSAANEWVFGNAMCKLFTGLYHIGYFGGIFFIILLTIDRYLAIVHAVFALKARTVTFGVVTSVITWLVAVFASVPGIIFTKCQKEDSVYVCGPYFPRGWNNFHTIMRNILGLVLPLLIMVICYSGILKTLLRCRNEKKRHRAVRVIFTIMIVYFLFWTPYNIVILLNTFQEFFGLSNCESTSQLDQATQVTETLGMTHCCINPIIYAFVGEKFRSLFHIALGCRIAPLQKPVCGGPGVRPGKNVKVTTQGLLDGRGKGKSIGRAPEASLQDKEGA
Protocol: as §1

[10] = biological target: 168 GPCRs (Homo sapiens, UniProt P47901); conditions: AVPR1B, Agonist
Sequence of 168 GPCRs (Homo sapiens, UniProt P47901) (P47901 whole entry): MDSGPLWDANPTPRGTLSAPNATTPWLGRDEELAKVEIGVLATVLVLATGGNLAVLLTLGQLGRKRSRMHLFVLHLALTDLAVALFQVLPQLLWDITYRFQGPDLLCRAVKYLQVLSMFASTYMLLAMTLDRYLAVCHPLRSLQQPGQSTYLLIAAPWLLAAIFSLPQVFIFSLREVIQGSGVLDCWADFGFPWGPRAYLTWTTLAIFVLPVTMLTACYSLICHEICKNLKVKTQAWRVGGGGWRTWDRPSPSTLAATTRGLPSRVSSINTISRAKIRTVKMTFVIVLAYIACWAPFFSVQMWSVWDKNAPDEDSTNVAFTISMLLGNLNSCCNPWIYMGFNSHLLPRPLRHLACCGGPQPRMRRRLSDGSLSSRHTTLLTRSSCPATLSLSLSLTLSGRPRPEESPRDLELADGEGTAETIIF
Protocol: as §1

[11] = biological target: 168 GPCRs (Homo sapiens, UniProt P49019); conditions: GPR109B
Sequence of 168 GPCRs (Homo sapiens, UniProt P49019) (P49019 whole entry): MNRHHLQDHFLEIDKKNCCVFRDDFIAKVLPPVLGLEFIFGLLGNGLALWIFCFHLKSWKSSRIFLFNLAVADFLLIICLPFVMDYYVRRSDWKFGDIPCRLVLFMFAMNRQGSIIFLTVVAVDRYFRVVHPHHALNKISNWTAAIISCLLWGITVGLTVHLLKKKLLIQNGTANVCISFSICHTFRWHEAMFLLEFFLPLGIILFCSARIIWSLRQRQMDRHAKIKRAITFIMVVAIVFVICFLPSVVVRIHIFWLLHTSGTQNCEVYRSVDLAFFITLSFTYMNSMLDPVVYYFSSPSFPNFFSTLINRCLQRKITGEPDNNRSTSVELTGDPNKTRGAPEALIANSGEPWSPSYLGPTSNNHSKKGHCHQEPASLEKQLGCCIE
Protocol: as §1

[12] = biological target: 168 GPCRs (Homo sapiens, UniProt Q13324)
Sequence of 168 GPCRs (Homo sapiens, UniProt Q13324) (Q13324 whole entry): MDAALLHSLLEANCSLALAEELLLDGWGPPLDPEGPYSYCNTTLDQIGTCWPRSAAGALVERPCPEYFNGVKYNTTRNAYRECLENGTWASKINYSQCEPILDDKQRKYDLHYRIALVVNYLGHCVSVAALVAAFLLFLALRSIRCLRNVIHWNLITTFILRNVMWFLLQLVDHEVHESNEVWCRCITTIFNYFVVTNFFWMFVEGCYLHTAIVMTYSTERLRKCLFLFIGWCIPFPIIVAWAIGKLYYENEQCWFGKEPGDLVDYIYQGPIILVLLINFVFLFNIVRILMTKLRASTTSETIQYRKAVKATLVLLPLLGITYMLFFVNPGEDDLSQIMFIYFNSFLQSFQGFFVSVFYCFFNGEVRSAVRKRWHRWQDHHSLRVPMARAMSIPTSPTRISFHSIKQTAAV
Protocol: as §1

[13] = biological target: 168 GPCRs (Homo sapiens, UniProt Q96G91)
Protocol: as §1

[14] = biological target: 168 GPCRs (Homo sapiens, UniProt Q9GZQ6)
Sequence of 168 GPCRs (Homo sapiens, UniProt Q9GZQ6) (Q9GZQ6 whole entry): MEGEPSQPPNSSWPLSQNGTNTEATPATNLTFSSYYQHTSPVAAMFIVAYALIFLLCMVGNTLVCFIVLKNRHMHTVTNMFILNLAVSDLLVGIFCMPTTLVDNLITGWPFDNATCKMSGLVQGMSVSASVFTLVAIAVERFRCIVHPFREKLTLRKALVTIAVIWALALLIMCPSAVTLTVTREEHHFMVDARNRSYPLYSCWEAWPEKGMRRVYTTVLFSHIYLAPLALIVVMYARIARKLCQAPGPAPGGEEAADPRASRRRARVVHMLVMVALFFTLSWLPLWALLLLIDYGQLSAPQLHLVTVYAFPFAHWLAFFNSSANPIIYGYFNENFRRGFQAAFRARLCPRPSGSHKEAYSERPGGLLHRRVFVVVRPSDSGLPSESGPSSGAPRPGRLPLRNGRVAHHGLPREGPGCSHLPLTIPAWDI
Protocol: as §1

[15] = biological target: 168 GPCRs (Homo sapiens, UniProt Q9HB89); conditions: NMU1R
Protocol: as §1

[16] = biological target: 168 GPCRs (Homo sapiens, UniProt Q9HBW0)
Sequence of 168 GPCRs (Homo sapiens, UniProt Q9HBW0) (Q9HBW0 whole entry): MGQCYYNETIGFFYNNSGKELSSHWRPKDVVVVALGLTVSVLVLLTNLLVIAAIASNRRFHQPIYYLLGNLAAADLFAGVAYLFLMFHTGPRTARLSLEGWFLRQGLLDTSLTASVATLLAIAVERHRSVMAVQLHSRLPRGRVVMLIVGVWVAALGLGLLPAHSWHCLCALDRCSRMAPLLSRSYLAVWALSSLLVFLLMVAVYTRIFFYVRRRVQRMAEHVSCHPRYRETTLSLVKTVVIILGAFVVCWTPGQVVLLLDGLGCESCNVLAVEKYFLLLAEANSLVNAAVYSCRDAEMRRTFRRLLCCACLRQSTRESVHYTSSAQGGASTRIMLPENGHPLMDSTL
Protocol: as §1

[17] = biological target: 168 GPCRs (Homo sapiens, UniProt Q9P296); conditions: C5L2, Agonist
Sequence of 168 GPCRs (Homo sapiens, UniProt Q9P296) (Q9P296 whole entry): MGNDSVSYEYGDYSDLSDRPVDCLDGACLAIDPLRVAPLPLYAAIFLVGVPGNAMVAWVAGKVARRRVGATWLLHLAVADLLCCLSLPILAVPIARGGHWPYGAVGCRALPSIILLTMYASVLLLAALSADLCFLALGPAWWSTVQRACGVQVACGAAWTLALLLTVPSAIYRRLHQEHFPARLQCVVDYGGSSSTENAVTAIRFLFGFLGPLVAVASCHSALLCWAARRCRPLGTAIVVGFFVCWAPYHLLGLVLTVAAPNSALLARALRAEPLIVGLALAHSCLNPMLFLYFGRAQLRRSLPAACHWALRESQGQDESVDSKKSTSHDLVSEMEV
Protocol: as §1

[18] = biological target: 168 GPCRs (Homo sapiens, UniProt Q9UKP6)
Sequence of 168 GPCRs (Homo sapiens, UniProt Q9UKP6) (Q9UKP6 whole entry): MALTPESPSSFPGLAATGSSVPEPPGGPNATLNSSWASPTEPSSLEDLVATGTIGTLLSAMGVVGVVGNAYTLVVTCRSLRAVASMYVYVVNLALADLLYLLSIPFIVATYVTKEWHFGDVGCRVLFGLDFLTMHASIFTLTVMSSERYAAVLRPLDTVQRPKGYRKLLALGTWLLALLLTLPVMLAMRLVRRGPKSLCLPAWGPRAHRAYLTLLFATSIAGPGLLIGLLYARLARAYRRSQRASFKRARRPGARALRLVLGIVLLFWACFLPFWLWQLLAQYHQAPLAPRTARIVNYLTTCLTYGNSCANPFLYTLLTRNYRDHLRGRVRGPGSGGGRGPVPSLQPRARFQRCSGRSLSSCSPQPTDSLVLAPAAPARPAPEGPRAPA
Protocol: as §1

**Q.** Which activity at 1 µM ([1]; 1 uM) does the source give for `CNC(C)C(=O)c1ccc2c(c1)OCO2` (stereo not drawn) [methylone, 3,4-methylenedioxy-N-methylcathinone] here?
**A.** -4.5%

**Q.** And the activity at 10 µM ([1]; 10 uM)?
**A.** -5.3%

**Q.** What about the activity at 10 µM ([2]; DRD1, Agonist mode, 10 uM) of the same compound?
**A.** -1.6%

**Q.** And the activity at 1 µM ([2]; DRD1, Agonist, 1 uM)?
**A.** -1.6%

**Q.** And the activity at 10 µM ([3]; Agonist mode, 10 uM)?
**A.** -2.95%

**Q.** And the activity at 1 µM ([3]; Agonist, 1 uM)?
**A.** -1.1%

**Q.** What about the activity at 10 µM ([4]; CXCR2, Agonist mode, 10 uM) of the same compound?
**A.** 2.6%

**Q.** And the activity at 1 µM ([4]; CXCR2, Agonist, 1 uM)?
**A.** -0.2%

**Q.** And the activity at 1 µM ([5]; 1 uM)?
**A.** -0.9%

**Q.** What about the activity at 10 µM ([5]; 10 uM) of the same compound?
**A.** 1%

**Q.** What about the activity at 1 µM ([6]; 1 uM) of the same compound?
**A.** -2.6%

**Q.** And the activity at 10 µM ([6]; 10 uM)?
**A.** 3.6%

**Q.** And the activity at 1 µM ([7]; 1 uM)?
**A.** 4.5%

**Q.** And the activity at 10 µM ([7]; 10 uM)?
**A.** -4.6%

**Q.** And the activity at 1 µM ([8]; 1 uM)?
**A.** -0.9%

**Q.** What about the activity at 10 µM ([8]; 10 uM) of the same compound?
**A.** -1.5%

**Q.** And the activity at 1 µM ([9]; 1 uM)?
**A.** -0.4%

**Q.** And the activity at 10 µM ([9]; 10 uM)?
**A.** -0.5%

**Q.** And the activity at 1 µM ([10]; 1 uM)?
**A.** -1.2%

**Q.** What about the activity at 10 µM ([10]; 10 uM) of the same compound?
**A.** -1.1%

**Q.** What about the activity at 10 µM ([11]; Agonist mode, 10 uM) of the same compound?
**A.** 0.5%

**Q.** And the activity at 1 µM ([11]; Agonist, 1 uM)?
**A.** 1%

**Q.** And the activity at 10 µM ([12]; CRHR2, Agonist mode, 10 uM)?
**A.** 0.9%

**Q.** And the activity at 1 µM ([12]; CRHR2, Agonist, 1 uM)?
**A.** 0.9%

**Q.** What about the activity at 10 µM ([13]; P2RY11, Agonist mode, 10 uM) of the same compound?
**A.** -0.3%

**Q.** And the activity at 1 µM ([13]; P2RY11, Agonist, 1 uM)?
**A.** 0.5%

**Q.** And the activity at 10 µM ([14]; NPFFR1, Agonist mode, 10 uM)?
**A.** -5.6%

**Q.** And the activity at 1 µM ([14]; NPFFR1, Agonist, 1 uM)?
**A.** -4.6%

**Q.** What about the activity at 10 µM ([15]; Agonist mode, 10 uM) of the same compound?
**A.** 2%

**Q.** And the activity at 1 µM ([15]; Agonist, 1 uM)?
**A.** 1.3%

**Q.** And the activity at 10 µM ([16]; EDG4, Agonist mode, 10 uM)?
**A.** -2.1%

**Q.** And the activity at 1 µM ([16]; EDG4, Agonist, 1 uM)?
**A.** -2.2%

**Q.** And the activity at 1 µM ([17]; 1 uM)?
**A.** 8.4%

**Q.** What about the activity at 10 µM ([17]; 10 uM) of the same compound?
**A.** 12.9%

**Q.** And the activity at 10 µM ([18]; UTR2, Agonist mode, 10 uM)?
**A.** 0%

**Q.** And the activity at 1 µM ([18]; UTR2, Agonist, 1 uM)?
**A.** 0.6%
